Measured values: patent US20160108381A1, “DNA POLYMERASES AND MUTANTS THEREOF” (LIFE TECHNOLOGIES CORPORATION, priority 2001, published 2016)

Columns and labels:
Test in all cases: Steady-state kinetics, DNA- and RNA-dependent polymerase activity
Assay type in all cases: biochemical
[1] = target: T1, Caldibacillus cellulovorans CompA.2 (CA2) DNA polymerase, SEQ ID NO:16 ([Caldibacillus] cellulovorans, UniProt Q6X9S0)
T1 sequence (Q6X9S0 with tags, fused parts or gaps): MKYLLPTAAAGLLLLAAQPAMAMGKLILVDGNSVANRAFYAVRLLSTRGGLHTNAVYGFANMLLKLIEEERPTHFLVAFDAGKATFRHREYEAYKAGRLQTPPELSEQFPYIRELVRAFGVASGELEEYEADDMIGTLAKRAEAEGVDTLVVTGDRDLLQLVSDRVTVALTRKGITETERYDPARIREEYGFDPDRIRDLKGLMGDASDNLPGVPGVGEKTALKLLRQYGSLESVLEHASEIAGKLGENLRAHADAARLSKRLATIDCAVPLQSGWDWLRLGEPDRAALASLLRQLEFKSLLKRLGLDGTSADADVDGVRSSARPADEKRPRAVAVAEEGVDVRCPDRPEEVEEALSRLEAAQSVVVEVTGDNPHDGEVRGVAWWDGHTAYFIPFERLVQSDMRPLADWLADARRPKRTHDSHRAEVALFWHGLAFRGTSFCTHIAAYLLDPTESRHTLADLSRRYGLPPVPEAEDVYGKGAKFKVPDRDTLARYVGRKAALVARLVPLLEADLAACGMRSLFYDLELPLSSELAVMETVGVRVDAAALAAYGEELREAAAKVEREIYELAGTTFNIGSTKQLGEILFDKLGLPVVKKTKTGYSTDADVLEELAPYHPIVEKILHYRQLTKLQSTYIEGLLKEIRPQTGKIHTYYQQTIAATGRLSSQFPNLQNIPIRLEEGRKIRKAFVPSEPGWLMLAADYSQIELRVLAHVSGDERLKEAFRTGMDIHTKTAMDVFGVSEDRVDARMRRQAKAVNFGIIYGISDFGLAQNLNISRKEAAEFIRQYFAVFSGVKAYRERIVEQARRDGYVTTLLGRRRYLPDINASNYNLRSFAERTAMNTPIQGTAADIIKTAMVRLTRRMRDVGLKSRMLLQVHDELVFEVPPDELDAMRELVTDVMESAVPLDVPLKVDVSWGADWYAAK
Procedure: (§1) Purification of CA2, B.EA1, Rt41A, Dth, Tok13B, Tok7B, and Rt69B DNA polymerase. E. coli cells (BL21SI, Invitrogen Corporation, Carlsbad, Calif.) bearing the plasmid pET26B with the gene for CA2, B.EA1, Rt41A, or Dth DNA polymerase were grown in 2.8-1 Fembach flasks in LB broth containing no salt and 50 μg/ml kanamycin at 37° C. After the culture reached an A590 of 1.2, expression of DNA polymerase was induced with 0.3 M NaCl for 3 hr. Cells were harvested by centrifugation and stored at −70° C. E. coli cells (BL21AI) bearing the plasmid pET14B with the gene for Tok13B, Tok7B, or RT69B DNA polymerase were grown in 2.8-1 Fembach flasks in LB broth containing 50 μg/ml ampicillin at 37° C. After the culture reached an A590 of 1.0, expression of DNA polymerase was induced by the addition of 0.2% arabinose for 3 hr. Cells were harvested by centrifugation and stored at −70° C.
(§2) Steady-state kinetic measurements.
(§3) The catalytic rate constant kcat and the Michaelis constant KM were determined for both the DNA-dependent and RNA-dependent polymerase activities for the polypeptides of the invention and these parameters were compared to those of Tne DNA polymerase enzyme and […]™ II reverse transcriptase. […]

[2] = target: SuperScript II reverse transcriptase (SSII, SS II RT), a modified M-MLV reverse transcriptase (Moloney murine leukemia virus isolate Shinnick, UniProt P03355)
Procedure: (§4) Thermotoga neapolitana (Tne) DNA polymerase mutated to eliminate 3′ to 5′ and 5′ to 3′ exonuclease activity was cloned, engineered and purified as described in U.S. Pat. No. 6,306,588. SuperScript II reverse transcriptase (SS II RT) was from Invitrogen Corporation, Carlsbad, Calif.
as §2, §3

[3] = target: T2, Thermotoga neapolitana (Tne) DNA polymerase, mutated to eliminate 3′ to 5′ and 5′ to 3′ exonuclease activity (Thermotoga neapolitana, UniProt B9K7T2)
T2 construct: mutated to eliminate 3'-5' and 5'-3' exonuclease activity as in US 6,306,588 (recalled, unsure: D137A and D323A)
Procedure: as §4, §2, §3

[4] = target: T3, Bacillus caldolyticus EA1.3 (B.EA1) DNA polymerase, SEQ ID NO:20 ([Bacillus] caldolyticus, UniProt Q6X9S1); settings: Table 40; dTTP; 55 °C
T3 sequence (Q6X9S1 with tags, fused parts or gaps): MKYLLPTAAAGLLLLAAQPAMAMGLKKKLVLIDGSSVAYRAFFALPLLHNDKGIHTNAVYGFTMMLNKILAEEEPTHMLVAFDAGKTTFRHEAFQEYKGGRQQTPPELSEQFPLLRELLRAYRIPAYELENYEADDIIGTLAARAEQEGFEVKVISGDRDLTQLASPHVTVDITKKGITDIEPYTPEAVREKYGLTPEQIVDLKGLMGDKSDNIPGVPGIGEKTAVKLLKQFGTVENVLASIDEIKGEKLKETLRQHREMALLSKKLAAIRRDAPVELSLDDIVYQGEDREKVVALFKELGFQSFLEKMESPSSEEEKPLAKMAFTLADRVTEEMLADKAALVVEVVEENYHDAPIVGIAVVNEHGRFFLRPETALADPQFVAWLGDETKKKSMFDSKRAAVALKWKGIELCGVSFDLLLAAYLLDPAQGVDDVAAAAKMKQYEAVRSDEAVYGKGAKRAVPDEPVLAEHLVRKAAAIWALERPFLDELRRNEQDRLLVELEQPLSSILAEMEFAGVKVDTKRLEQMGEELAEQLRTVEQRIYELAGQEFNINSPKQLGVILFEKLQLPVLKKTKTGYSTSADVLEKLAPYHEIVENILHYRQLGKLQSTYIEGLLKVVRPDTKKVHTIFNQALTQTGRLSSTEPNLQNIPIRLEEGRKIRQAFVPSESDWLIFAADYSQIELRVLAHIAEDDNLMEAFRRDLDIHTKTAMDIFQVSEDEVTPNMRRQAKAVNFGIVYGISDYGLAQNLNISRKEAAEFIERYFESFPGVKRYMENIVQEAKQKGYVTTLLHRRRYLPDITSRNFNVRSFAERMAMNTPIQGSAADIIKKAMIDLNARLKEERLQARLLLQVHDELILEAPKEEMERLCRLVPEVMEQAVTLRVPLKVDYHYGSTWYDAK
Procedure: as §1, §2

[5] = Table 34, RNA template, 2 mM MgCl2, 45 °C per footnote
[6] = read-out: Km RNA (dTTP), Table 34, RNA template, 2 mM MgCl2, 45 °C per footnote

T2 sequence (B9K7T2 entry or part of it, stated change not applied): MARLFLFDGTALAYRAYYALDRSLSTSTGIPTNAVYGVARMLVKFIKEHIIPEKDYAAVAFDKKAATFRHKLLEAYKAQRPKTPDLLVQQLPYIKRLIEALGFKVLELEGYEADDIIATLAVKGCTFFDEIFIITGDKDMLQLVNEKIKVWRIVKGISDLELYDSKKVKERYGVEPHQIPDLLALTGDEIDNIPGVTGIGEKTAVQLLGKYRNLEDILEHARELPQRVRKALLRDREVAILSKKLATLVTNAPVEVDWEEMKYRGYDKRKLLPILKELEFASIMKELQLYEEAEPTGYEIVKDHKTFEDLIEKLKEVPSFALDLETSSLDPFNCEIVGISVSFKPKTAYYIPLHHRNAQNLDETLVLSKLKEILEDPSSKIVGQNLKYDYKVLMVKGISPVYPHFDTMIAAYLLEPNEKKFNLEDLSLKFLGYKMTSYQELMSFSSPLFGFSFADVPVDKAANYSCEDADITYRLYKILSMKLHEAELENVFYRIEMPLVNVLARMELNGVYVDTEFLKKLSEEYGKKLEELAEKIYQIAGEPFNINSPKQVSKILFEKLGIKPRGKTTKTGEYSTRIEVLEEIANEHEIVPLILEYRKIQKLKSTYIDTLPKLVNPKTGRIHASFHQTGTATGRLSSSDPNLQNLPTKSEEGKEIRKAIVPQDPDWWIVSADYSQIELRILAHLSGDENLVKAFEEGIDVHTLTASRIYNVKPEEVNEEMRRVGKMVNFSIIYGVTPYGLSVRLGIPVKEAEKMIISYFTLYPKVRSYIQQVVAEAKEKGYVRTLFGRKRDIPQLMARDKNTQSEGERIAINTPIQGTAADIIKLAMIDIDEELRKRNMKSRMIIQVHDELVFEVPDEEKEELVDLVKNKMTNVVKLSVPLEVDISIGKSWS

## Cc1cn([C@H]2C[C@H](O)[C@@H](COP(=O)(O)OP(=O)(O)OP(=O)(O)O)O2)c(=O)[nH]c1=O [dTTP]
[1]; [5]
  Kcat RNA (dTTP): 5 s⁻¹
[1]; Table 40, dTTP, 55 °C
  kCAT Ratio (RNA/DNA): 0.59
[1]; [6]
  Km: 17 µM
[2]; [5]
  Kcat RNA (dTTP): 14.5 s⁻¹
[2]; Table 40, 37 °C, RNA-DNA with dTTP over DNA-DNA with dGTP
  kCAT Ratio (RNA/DNA): 2.8
[2]; Table 40, (rA)250•(dT) template-primer, dTTP, 37 °C, mean ± SD
  kCAT RNA-DNA: 45 ± 18 s⁻¹
[2]; [6]
  Km: 17 µM
[3]; [5]
  Kcat RNA (dTTP): 0.094 s⁻¹
[3]; Table 40, 72 °C, RNA-DNA with dTTP over DNA-DNA with dGTP
  kCAT Ratio (RNA/DNA): 0.002
[3]; Table 40, (rA)250•(dT)40, dTTP, 72 °C, mean ± SD
  kCAT RNA-DNA: 0.2 ± 0.04 s⁻¹
[3]; [6]
  Km: 37 µM
[4]
  kCAT Ratio (RNA/DNA): 0.59
